These results are taken from US5034391A, “Piperazinylalkyl-3(2H)-pyridazinones and the use thereof as agents lowering blood pressure” (CL Pharma Aktiengesellschaft, priority 1988, dated 1991).

The data set in a line: Solubility of the isolated salt in water (remark in the preparation examples). The following applies: hydrochloride / dihydrochloride salt. The format is physicochemical.

`CC(C)(C)n1ncc(Cl)c(NCCN2CCN(c3cccc(C(F)(F)F)c3)CC2)c1=O`: the solubility in water entry is recorded as “readily soluble in water”. The same measure for `Cc1cccc(C)c1N1CCN(CCNc2c(Cl)cnn(C)c2=O)CC1` [2-methyl-5-chloro-4-((2-(4-(2,6-dimethylphenyl)-1-piperazinyl)ethyl)amino)-3(2H)-pyridazinone]: “readily soluble in water”; for `COc1ccccc1N1CCN(CCCCCCNc2c(Cl)cnn(C)c2=O)CC1` [2-methyl-5-chloro-4-((6-(4-(2-methoxyphenyl)-1-piperazinyl)hexyl)amino)-3(2H)-pyridazinone]: “soluble in water”. The entry for `Cc1cccc(C)c1N1CCN(CCNc2cnn(C)c(=O)c2Cl)CC1` [2-methyl-4-chloro-5-((2-(4-(2,6-dimethylphenyl)-1-piperazinyl)ethyl)amino)-3(2H)-pyridazinone] is “readily soluble in water”; for `COc1ccccc1N1CCN(CCCCCCNc2cnn(C)c(=O)c2Cl)CC1` [2-Methyl-4-chloro-5-((6-(4-(2-methoxyphenyl)-1-piperazinyl)hexyl)amino)-3(2H)-pyridazinone] it is “soluble in water”.
